From PubChem BioAssay AID1259407 (Chemical Carcinogenesis Research Information System (CCRIS), 2018)
Active and inactive are the calls of the source. How the calls were made is not given here.

System: CCRIS mutagenicity, Ames/micronucleus/aberration tests
Assay: CCRIS mutagenicity studies
[1] = Test System: AMES SALMONELLA TYPHIMURIUM, Strain/Indicator: TA98, Metabolic Activation: NONE, Method: STANDARD PLATE
[2] = Test System: AMES SALMONELLA TYPHIMURIUM, Strain/Indicator: TA98, Metabolic Activation: RAT, LIVER, S-9, AROCLOR 1254, Method: STANDARD PLATE
[3] = Test System: AMES SALMONELLA TYPHIMURIUM, Strain/Indicator: TA100, Metabolic Activation: NONE, Method: STANDARD PLATE
[4] = Test System: AMES SALMONELLA TYPHIMURIUM, Strain/Indicator: TA100, Metabolic Activation: RAT, LIVER, S-9, AROCLOR 1254, Method: STANDARD PLATE
[5] = Test System: AMES SALMONELLA TYPHIMURIUM, Strain/Indicator: TA1535, Metabolic Activation: NONE, Method: STANDARD PLATE
[6] = Test System: AMES SALMONELLA TYPHIMURIUM, Strain/Indicator: TA1535, Metabolic Activation: RAT, LIVER, S-9, AROCLOR 1254, Method: STANDARD PLATE
[7] = Test System: AMES SALMONELLA TYPHIMURIUM, Strain/Indicator: TA1537, Metabolic Activation: NONE, Method: STANDARD PLATE
[8] = Test System: AMES SALMONELLA TYPHIMURIUM, Strain/Indicator: TA1537, Metabolic Activation: RAT, LIVER, S-9, AROCLOR 1254, Method: STANDARD PLATE
[9] = Test System: AMES SALMONELLA TYPHIMURIUM, Strain/Indicator: TA1538, Metabolic Activation: NONE, Method: STANDARD PLATE
[10] = Test System: AMES SALMONELLA TYPHIMURIUM, Strain/Indicator: TA1538, Metabolic Activation: RAT, LIVER, S-9, AROCLOR 1254, Method: STANDARD PLATE
[11] = Test System: AMES SALMONELLA TYPHIMURIUM, Strain/Indicator: TA100, Metabolic Activation: NONE, Method: PREINCUBATION
[12] = Test System: E. COLI, Strain/Indicator: WP2 UVRA, Metabolic Activation: NONE, Method: SPOT
[13] = Test System: AMES SALMONELLA TYPHIMURIUM, Strain/Indicator: TA98, Metabolic Activation: NONE, Method: PREINCUBATION
[14] = Test System: AMES SALMONELLA TYPHIMURIUM, Strain/Indicator: TA100, Metabolic Activation: RAT, LIVER, S-9, AROCLOR 1254, Method: PREINCUBATION

For CC(O)Cc1cc(N)cc([N+](=O)[O-])c1N (centres undefined), which mutagenic call [1] is on record?
Its mutagenic call is “inactive; negative”.

What about the mutagenic call [2] of the same compound?
The mutagenic call was “inactive; negative”.

What about the mutagenic call [3] of the same compound?
The mutagenic call was “inactive; negative”.

And the mutagenic call [4]?
Its mutagenic call is “inactive; negative”.

And the mutagenic call [5]?
Its mutagenic call is “inactive; negative”.

And the mutagenic call [6]?
Its mutagenic call is “inactive; negative”.

And the mutagenic call [7]?
The mutagenic call was “inactive; negative”.

What about the mutagenic call [8] of the same compound?
The mutagenic call was “inactive; negative”.

And the mutagenic call [9]?
The mutagenic call was “inactive; negative”.

And the mutagenic call [10]?
Its mutagenic call is “inactive; negative”.

NC(=O)/C(=C\c1ccc([N+](=O)[O-])o1)c1ccco1 was tested. Which mutagenic call [1] did it give?
Its mutagenic call is “active; positive”.

And the mutagenic call (Test System: AMES SALMONELLA TYPHIMURIUM, Strain/Indicator: TA98, Metabolic Activation: RAT, LIVER, S-9, KC500 OR PHENOBARBITAL, Method: LIQUID SUSPENSION)?
Its mutagenic call is “active; positive”.

And the mutagenic call [11]?
Its mutagenic call is “active; positive”.

What about the mutagenic call [3] of the same compound?
The mutagenic call was “active; positive”.

And the mutagenic call (Test System: AMES SALMONELLA TYPHIMURIUM, Strain/Indicator: TA100, Metabolic Activation: RAT, LIVER, S-9, KC500 OR PHENOBARBITAL, Method: LIQUID SUSPENSION)?
Its mutagenic call is “active; positive”.

And the mutagenic call (Test System: AMES SALMONELLA TYPHIMURIUM, Strain/Indicator: YG7112, Metabolic Activation: NONE, Method: PREINCUBATION)?
The mutagenic call was “active; positive”.

And the mutagenic call (Test System: AMES SALMONELLA TYPHIMURIUM, Strain/Indicator: YG7113, Metabolic Activation: NONE, Method: PREINCUBATION)?
Its mutagenic call is “active; positive”.

And the mutagenic call (Test System: AMES SALMONELLA TYPHIMURIUM, Strain/Indicator: YG7119, Metabolic Activation: NONE, Method: PREINCUBATION)?
The mutagenic call was “active; positive”.

What about the mutagenic call (Test System: Ames Salmonella typhimurium, Strain/Indicator: TA100, Metabolic Activation: None, Method: Preincubation) of the same compound?
The mutagenic call was “active; positive”.

And the mutagenic call (Test System: Ames Salmonella typhimurium, Strain/Indicator: TA1975P, Metabolic Activation: None, Method: Preincubation)?
The mutagenic call was “active; positive (at higher doses)”.

And the mutagenic call (Test System: CHINESE HAMSTER V-79, Strain/Indicator: V-79/8-AZAGUANINE, Metabolic Activation: NONE, Method: STANDARD PLATE)?
Its mutagenic call is “active; positive”.

And the mutagenic call (Test System: E. COLI, Strain/Indicator: WP2, Metabolic Activation: NONE, Method: PREINCUBATION)?
The mutagenic call was “active; positive”.

What about the mutagenic call [12] of the same compound?
The mutagenic call was “active; positive”.

And the mutagenic call (Test System: MOUSE LYMPHOMA, Strain/Indicator: L5178Y (TK+/TK-), Metabolic Activation: NONE, Method: SUSPENSION/PLATE)?
Its mutagenic call is “active; positive”.

And the mutagenic call (Test System: MOUSE LYMPHOMA, Strain/Indicator: L5178Y (TK+/TK-), Metabolic Activation: RAT, LIVER, S-9, AROCLOR 1254, Method: SUSPENSION/PLATE)?
The mutagenic call was “active; positive”.

Which mutagenic call [13] does the source give for Nc1ccc2nc3ccc(N)cc3nc2c1 here?
Its mutagenic call is “inactive; negative”.

And the mutagenic call (Test System: AMES SALMONELLA TYPHIMURIUM, Strain/Indicator: TA98, Metabolic Activation: RAT, LIVER, S-9, PCB, Method: PREINCUBATION)?
Its mutagenic call is “active; positive”.

Which results are given for CC(=O)[CH-]C(=O)c1ccccc1.CC(=O)[CH-]C(=O)c1ccccc1.CC[O-].CC[O-].[Ti+4]?
mutagenic call [1]: inactive; negative; mutagenic call [2]: inactive; negative; mutagenic call [3]: inactive; negative; mutagenic call [14]: inactive; negative; mutagenic call [4]: inactive; negative; mutagenic call [5]: inactive; negative; mutagenic call (Test System: AMES SALMONELLA TYPHIMURIUM, Strain/Indicator: TA1535, Metabolic Activation: RAT, LIVER, S-9, AROCLOR 1254, Method: PREINCUBATION): inactive; negative; mutagenic call [6]: inactive; negative; mutagenic call [7]: inactive; negative; mutagenic call [8]: inactive; negative; mutagenic call [9]: inactive; negative; mutagenic call [10]: inactive; negative

Which mutagenic call (Test System: E. COLI, Strain/Indicator: WP2, Metabolic Activation: NONE, Method: SPOT) does the source give for NC(=O)N/N=C(/CCN1CCCCC1)c1ccc([N+](=O)[O-])o1 here?
Its mutagenic call is “active; positive”.

What about the mutagenic call [12] of the same compound?
Its mutagenic call is “active; positive”.

With O=Nc1ccc2ccc3c4ccccc4cc4ccc1c2c43 as the compound, how does the mutagenic call (Test System: AMES SALMONELLA TYPHIMURIUM, Strain/Indicator: TA98 (1,8-DNP6), Metabolic Activation: NONE, Method: STANDARD PLATE) read?
The mutagenic call was “active; positive”.

What about the mutagenic call (Test System: AMES SALMONELLA TYPHIMURIUM, Strain/Indicator: TA98 (NR), Metabolic Activation: NONE, Method: STANDARD PLATE) of the same compound?
The mutagenic call was “active; positive”.

And the mutagenic call [1]?
The mutagenic call was “active; positive”.

What about the mutagenic call (Test System: CHINESE HAMSTER OVARY, Strain/Indicator: CHO-K1-BH4 (HGPRT), Metabolic Activation: NONE) of the same compound?
The mutagenic call was “active; positive”.

For CCN(CC)CC#CC(C)(C)OC(=O)C(O)(c1ccccc1)C1CCCCC1 (centres undefined), which mutagenic call [1] is on record?
Its mutagenic call is “inactive; negative”.

And the mutagenic call (Test System: AMES SALMONELLA TYPHIMURIUM, Strain/Indicator: TA98, Metabolic Activation: RAT, LIVER, S-9, PHENOBARBITAL AND 5,6-BENZOFLAVONE, Method: STANDARD PLATE)?
Its mutagenic call is “inactive; negative”.

What about the mutagenic call [3] of the same compound?
Its mutagenic call is “inactive; negative”.

What about the mutagenic call (Test System: AMES SALMONELLA TYPHIMURIUM, Strain/Indicator: TA100, Metabolic Activation: RAT, LIVER, S-9, PHENOBARBITAL AND 5,6-BENZOFLAVONE, Method: STANDARD PLATE) of the same compound?
Its mutagenic call is “inactive; negative”.

What about the mutagenic call [5] of the same compound?
The mutagenic call was “inactive; negative”.

And the mutagenic call (Test System: AMES SALMONELLA TYPHIMURIUM, Strain/Indicator: TA1535, Metabolic Activation: RAT, LIVER, S-9, PHENOBARBITAL AND 5,6-BENZOFLAVONE, Method: STANDARD PLATE)?
The mutagenic call was “inactive; negative”.

And the mutagenic call [7]?
Its mutagenic call is “inactive; negative”.

What about the mutagenic call (Test System: AMES SALMONELLA TYPHIMURIUM, Strain/Indicator: TA1537, Metabolic Activation: RAT, LIVER, S-9, PHENOBARBITAL AND 5,6-BENZOFLAVONE, Method: STANDARD PLATE) of the same compound?
The mutagenic call was “inactive; negative”.

And the mutagenic call (Test System: E. COLI, Strain/Indicator: WP2 UVRA, Metabolic Activation: NONE, Method: STANDARD PLATE)?
The mutagenic call was “inactive; negative”.

And the mutagenic call (Test System: E. COLI, Strain/Indicator: WP2 UVRA, Metabolic Activation: RAT, LIVER, S-9, PHENOBARBITAL AND 5,6-BENZOFLAVONE, Method: STANDARD PLATE)?
Its mutagenic call is “inactive; negative”.

What does the source list for OC[C@@H](O)[C@@H](O)[C@H](O)[C@@H](O)CO?
mutagenic call (End Point: IN VITRO CHROMOSOMAL ABERRATIONS, Test System: CHO-WBL CELLS, Metabolic Activation: NONE): active; positive (structural changes); osmolality of solution decisive factor; mutagenic call (Test System: AMES SALMONELLA TYPHIMURIUM, Strain/Indicator: TA97A, Metabolic Activation: NONE, Method: PREINCUBATION): inactive; negative; mutagenic call (Test System: AMES SALMONELLA TYPHIMURIUM, Strain/Indicator: TA97A, Metabolic Activation: RAT, LIVER, S-9, AROCLOR 1254, Method: PREINCUBATION): inactive; negative; mutagenic call (Test System: AMES SALMONELLA TYPHIMURIUM, Strain/Indicator: TA102, Metabolic Activation: NONE, Method: PREINCUBATION): inactive; negative; mutagenic call (Test System: AMES SALMONELLA TYPHIMURIUM, Strain/Indicator: TA102, Metabolic Activation: RAT, LIVER, S-9, AROCLOR 1254, Method: PREINCUBATION): inactive; negative

For Cc1ccccc1N=Nc1ccc(N)c(C)c1N, which mutagenic call (Test System: AMES SALMONELLA TYPHIMURIUM, Strain/Indicator: TA100, Metabolic Activation: HUMAN, LIVER, S-9, Method: PREINCUBATION) is on record?
The mutagenic call was “active; positive”.

And the mutagenic call (Test System: AMES SALMONELLA TYPHIMURIUM, Strain/Indicator: TA100, Metabolic Activation: RAT, LIVER, S-9, BETA-NAPHTHOFLAVONE, Method: PREINCUBATION)?
Its mutagenic call is “active; positive”.

What about the mutagenic call (Test System: AMES SALMONELLA TYPHIMURIUM, Strain/Indicator: TA100, Metabolic Activation: RAT, LIVER, S-9, PHENOBARBITAL, Method: PREINCUBATION) of the same compound?
Its mutagenic call is “active; positive”.

And the mutagenic call (Test System: AMES SALMONELLA TYPHIMURIUM, Strain/Indicator: TA100, Metabolic Activation: RAT, LIVER, S-9, Method: PREINCUBATION)?
The mutagenic call was “active; positive”.

And the mutagenic call (Test System: UDS RODENT HEPATOCYTES, Strain/Indicator: THY INCORP, Metabolic Activation: NONE, Method: AUTORADIOGRAPHY)?
Its mutagenic call is “active; positive”.

Which results are given for CCCC(=O)OCc1ccc([N+](=O)[O-])cc1?
mutagenic call [13]: inactive; negative; mutagenic call (Test System: AMES SALMONELLA TYPHIMURIUM, Strain/Indicator: TA100(NR), Metabolic Activation: NONE, Method: PREINCUBATION): inactive; negative; mutagenic call [11]: active; positive; mutagenic call [14]: active; positive
